Results taken from patent US20070207112A1, “Anti-acne composition” (GRANT INDUSTRIES, INC., priority 2006, published 2007).
Residues, ends and D or L forms follow the SMILES beside them.

Experiments:
P. acnes [1] = conditions: cited from earlier work
P. acnes [2] = format: cell-based; conditions: salicylate 0.08% to 5%
Text: In-Vitro testing for the synergetic inhibitory effects of Compound A and salicylic acid on the growth of P. acnes.
The objective of this experiment was to establish the minimal inhibitory concentration (MIC) of the peptide (Compound A) towards the bacterium P. acnes, in the presence of a range of concentrations of sodium salt of salicylic acid. MIC is defined as the lowest concentration of an active material resulting in lack of microbial growth. P. acnes (BD, cat. #237038, batch #6152097) was inoculated at 3 different dilutions and grown on blood agar plates for one week in anaerobic condition at 37 deg. C. Bacteria were then inoculated in thioglycollate broth in a 96 well plate, at the density equal to 0.5 McFarland standard in the presence of peptide (Compound A) concentrations ranging from 0.25 ug/ml to 32 ug/ml and salicylate concentrations ranging from 0.08% to 5% (checker method). MIC was determined visually and confirmed by spectrophotometry at 490 nm and 590 nm on the BioRad 3550-UV microplate reader.

For `CC(C)C[C@H](NC(=O)[C@H](C)NC(=O)[C@H](CCCCN)NC(=O)[C@H](CC(C)C)NC(=O)[C@H](C)NC(=O)[C@H](CCCCN)NC(=O)[C@H](CC(C)C)NC(=O)[C@H](CC(C)C)NC(=O)[C@H](C)NC(=O)[C@H](CCCCN)NC(=O)[C@H](CC(C)C)NC(=O)[C@H](C)NC(=O)[C@H](CCCCN)NC(=O)[C@H](C)NC(=O)[C@@H](N)Cc1ccccc1)C(N)=O` [Compound A, FAKALKALLKALKAL-NH2] (H-FAKALKALLKALKAL-NH2; N-terminus assumed), the “MIC against P. acnes (in words)” value (P. acnes [1]; in-vitro, reported in earlier filings) is given as “low in-vitro minimum inhibitory concentration (MIC) against P. acnes” and the “Effect of added sodium salicylate on antimicrobial activity of the peptide” value (P. acnes [2]) is given as “strongly enhance its antimicrobial activity”.

For `O=C(O)c1ccccc1O` [salicylic acid, reference compound], the “Antibacterial activity against P. acnes” value (P. acnes [1]; U.S. Pat. No. 4,520,133) is listed as “does not posses any antibacterial activity against P. acnes”.
